Measurements published in ChEMBL document CHEMBL4043121, “5-Bromoindirubin 3'-(O-oxiran-2-ylmethyl)oxime: A long-acting anticancer agent and a suicide inhibitor for epoxide hydrolase” (Bioorg Med Chem, 2017).
Activity calls are given as the source filed them. The rule behind the calls is not given here.

Key:
HepG2 [1] = assay: Cytotoxicity against human HepG2 cells assessed as cell growth inhibition after 24 hrs by alamar blue assay; assay type: functional, cell-based; conditions: HepG2, 24 h
[2] = Drug metabolism in human HepG2 cell lysate assessed as epoxide hydrolase-mediated 5-bromoindirubin 3'-(O-2,3-dihydroxypropyl)oxime level after 5 mins by HPLC analysis; assay type: ADME
[3] = Drug recovery in human HepG2 cell lysate measured up to 30 mins by HPLC analysis; assay type: ADME, cell-based; conditions: read-out: Drug recovery
HepG2 [4] = assay: Cytotoxicity against human HepG2 cells assessed as cell viability at 3 uM after 24 hrs by alamar blue assay relative to control; assay type: functional; conditions: HepG2, 24 h, read-out: Activity
HepG2 [5] = assay: Cytotoxicity against human HepG2 cells assessed as cell viability at 1 uM after 72 hrs by alamar blue assay relative to control; assay type: functional; conditions: HepG2, 72 h, read-out: Activity
[6] = Drug metabolism in human HepG2 cell lysate assessed as epoxide hydrolase-mediated oxirane hydrolysis at 9 uM measured up to 30 mins by HPLC analysis; assay type: ADME; conditions: 0.5 h
[7] = Drug metabolism in human HepG2 cell lysate assessed as epoxide hydrolase-mediated 1H,1'H-[2,3']Biindolylidene-3,2'-dione 3-[O-(2,3-dihydroxy-propyl)-oxime] level after 5 mins by HPLC analysis; assay type: ADME
epoxide hydrolase = assay: Substrate activity at epoxide hydrolase in human HepG2 cell lysate after 5 mins by Lineweaver-Burk plot analysis; assay type: ADME
HepG2 [8] = assay: Cytotoxicity against human HepG2 cells assessed as cell viability at 1 uM after 24 hrs by alamar blue assay relative to control; assay type: functional; conditions: HepG2, 24 h, read-out: Activity
HepG2 [9] = assay: Cytotoxicity against human HepG2 cells assessed as cell viability at 3 uM after 72 hrs by alamar blue assay relative to control; assay type: functional; conditions: HepG2, 72 h, read-out: Activity
HepG2 [10] = assay: Cytotoxicity against human HepG2 cells assessed as cell viability at 3 uM up to 72 hrs by alamar blue assay; assay type: functional, cell-based
[11] = Drug metabolism in human HepG2 cell lysate assessed as epoxide hydrolase-mediated 5-bromoindirubin 3'-(O-2,3-dihydroxypropyl)oxime level after 20 mins by HPLC analysis; assay type: ADME
[12] = Drug metabolism in human HepG2 cell lysate assessed as epoxide hydrolase-mediated 5-bromoindirubin 3'-(O-2,3-dihydroxypropyl)oxime formation after 30 mins by UPLC/MS analysis; assay type: ADME; conditions: 0.5 h
Homo sapiens [13] = species on record: Homo sapiens; assay: Effect on epoxide hydrolase activity in human HepG2 cell lysate measured up to 25 uM
[14] = Drug recovery in human HepG2 cell lysate by HPLC analysis; assay type: ADME, cell-based; conditions: TDE = time-dependent effect
[15] = Drug metabolism in human HepG2 cell lysate assessed as epoxide hydrolase-mediated 5-bromoindirubin 3'-(O-2,3-dihydroxypropyl)oxime formation after 30 mins by HPLC analysis; assay type: ADME; conditions: 0.5 h
[16] = Drug recovery in human HepG2 cell lysate at 5 mins by HPLC analysis; assay type: ADME, cell-based; conditions: read-out: Drug recovery
[17] = Drug recovery in human HepG2 cell lysate after 10 to 30 mins by HPLC analysis; assay type: ADME, cell-based
Homo sapiens [18] = species on record: Homo sapiens; assay: Inhibition of epoxide hydrolase in human HepG2 cell lysate up to 25 uM by Kitz-Wilson method; conditions: TDE = time-dependent effect
[19] = Drug recovery in human HepG2 cell lysate measured immediately after compound addition by HPLC analysis; assay type: ADME, cell-based; conditions: read-out: Drug recovery
[20] = Substrate activity at epoxide hydrolase in human HepG2 cell lysate assessed as 5-bromoindirubin 3'-(O-2,3-dihydroxypropyl)oxime formation at 2.5 to 6.25 uM after 5 mins by HPLC analysis; assay type: ADME
HepG2 [21] = assay: Retention time of the compound in human HepG2 cell lysate by HPLC analysis; assay type: ADME, cell-based
[22] = Drug metabolism in human HepG2 cell lysate assessed as epoxide hydrolase-mediated 5-bromoindirubin 3'-(O-2,3-dihydroxypropyl)oxime level by HPLC analysis; assay type: ADME; conditions: TDE = time-dependent effect
[23] = Drug metabolism in human HepG2 cell lysate assessed as epoxide hydrolase-mediated oxirane hydrolysis at 20 uM measured up to 30 mins by HPLC analysis; assay type: ADME; conditions: 0.5 h
Homo sapiens [24] = species on record: Homo sapiens; assay: Inhibition of epoxide hydrolase in human HepG2 cell lysate up to 25 uM measured after 5 to 10 mins by Kitz-Wilson method
[25] = Substrate activity at epoxide hydrolase in human HepG2 cell lysate assessed as 5-bromoindirubin 3'-(O-2,3-dihydroxypropyl)oxime formation at >10 uM after 5 mins by HPLC analysis; assay type: ADME

SMILES	IC50 (HepG2 [1]) [µM]	also measured
O=C1Nc2ccc(Br)cc2/C1=C1/Nc2cc(Br)ccc2/C1=N\OCC1CO1 (stereo unspecified)	> 100	–
O=C1Nc2ccc(Br)cc2/C1=C1/Nc2ccc(Br)cc2/C1=N\O	7	–
O=C1Nc2ccccc2/C1=C1/Nc2ccc(Br)cc2/C1=N\OCC1CO1 (stereo unspecified)	3.3	–
O=C1Nc2cc(Br)ccc2/C1=C1/Nc2ccccc2/C1=N\OCC1CO1 (stereo unspecified)	> 100	–
O=C1Nc2ccccc2/C1=C1/Nc2ccccc2/C1=N\OCCCC1CO1 (stereo unspecified)	16	–
O=C1Nc2ccccc2/C1=C1/Nc2ccccc2/C1=N\OCC1CO1 (stereo unspecified)	–	Drug metabolism [2]: 2.24 nmol; remaining at 0.5 h [3]: 96 to 103%; viability at 3 µM (HepG2 [4]): 33%; viability at 1 µM (HepG2 [5]): 85%; Drug metabolism [6]: 1.8 nmol; Drug metabolism [7]: 7.34 nmol; Km at 5 min (epoxide hydrolase): 1.51 µM; viability at 1 µM (HepG2 [8]): 66%; viability at 3 µM (HepG2 [9]): 1.8%
O=C1Nc2c(Br)cccc2/C1=C1/Nc2ccccc2/C1=N\O	4.8	–
COc1ccc2c(c1)NC(=O)/C2=C1\Nc2ccccc2\C1=N/OCC1CO1 (stereo unspecified)	61	–
O=C1Nc2cc(Br)ccc2/C1=C1/Nc2ccc(Br)cc2/C1=N\O	3.7	–
O=C1Nc2ccc(Br)cc2/C1=C1/Nc2cc(Br)ccc2C1=O	> 100	–
COc1cccc2c1NC(=O)/C2=C1\Nc2ccccc2\C1=N/OCC1CO1 (stereo unspecified)	10	–
O=C1Nc2cc(Br)ccc2/C1=C1/Nc2ccc(Br)cc2C1=O	> 100	–
O=C1Nc2c(Br)cc(Br)cc2/C1=C1/Nc2ccccc2/C1=N\O	6.6	–
O=C1Nc2ccccc2/C1=C1/Nc2cc(Br)ccc2C1=O	> 100	–
O=C1Nc2ccc(Cl)cc2/C1=C1/Nc2ccccc2/C1=N\O	13	–
O=C1Nc2ccc(Br)cc2/C1=C1/Nc2cc(Br)ccc2/C1=N\O	> 100	–
O=C1Nc2ccccc2/C1=C1/Nc2cc(Br)ccc2/C1=N\OCC1CO1 (stereo unspecified)	4.5	–
O=C1Nc2ccc(F)cc2/C1=C1/Nc2ccccc2/C1=N\O	10	–
O=C1Nc2ccccc2/C1=C1/Nc2ccc(Br)cc2C1=O	> 100	–
O=C1Nc2cc(Br)ccc2/C1=C1/Nc2cc(Br)ccc2/C1=N\O	16	–

SMILES	IC50 (HepG2 [1]) [µM]	also measured
O=C1Nc2ccccc2/C1=C1/Nc2cc(Br)ccc2/C1=N\O	14	–
O=C1Nc2ccc(F)cc2/C1=C1/Nc2ccccc2/C1=N\OCC1CO1 (stereo unspecified)	1.7	–
O=C1Nc2c(Br)cccc2/C1=C1/Nc2ccccc2/C1=N\OCC1CO1 (stereo unspecified)	37	Activity (HepG2 [10]): inactive
O=C1Nc2ccc(Cl)cc2/C1=C1/Nc2ccccc2C1=O	> 100	–
O=C1Nc2ccc(Br)cc2/C1=C1/Nc2ccccc2/C1=N\O [INDIRUBIN 2]	6.9	–
COc1ccc2c(c1)/C(=C1/Nc3ccccc3C1=O)C(=O)N2	> 100	–
O=C1Nc2ccc(I)cc2/C1=C1/Nc2ccccc2/C1=N\OCC1CO1 (stereo unspecified)	3	–
O=C1Nc2cc(Br)ccc2/C1=C1/Nc2cc(Br)ccc2C1=O	> 100	–
COc1ccc2c(c1)NC(=O)/C2=C1\Nc2ccccc2C1=O	> 100	–
O=C1Nc2c(Br)cccc2/C1=C1/Nc2cc(Br)ccc2C1=O	> 100	–
O=C1Nc2cc(Br)c(Br)cc2/C1=C1/Nc2ccccc2C1=O	> 100	–
O=C1Nc2c(Br)cccc2/C1=C1/Nc2ccccc2C1=O	> 100	–
COc1ccc2c(c1)/C(=C1/Nc3ccccc3/C1=N\OCC1CO1)C(=O)N2 (stereo unspecified)	1.6	–
O=C1Nc2ccc(Br)cc2/C1=C1/Nc2ccc(Br)cc2/C1=N\OCC1CO1 (stereo unspecified)	2.5	–
O=C1Nc2c(Br)cccc2/C1=C1/Nc2cc(Br)ccc2/C1=N\OCC1CO1 (stereo unspecified)	> 100	–
O=C1Nc2cc(Br)ccc2/C1=C1/Nc2cc(Br)ccc2/C1=N\OCC1CO1 (stereo unspecified)	> 100	–
COc1ccc2c(c1)NC(=O)/C2=C1\Nc2ccccc2\C1=N/O	21	–
O=C1Nc2ccc(Br)cc2/C1=C1/Nc2ccccc2/C1=N\OCC1CO1 (stereo unspecified)	0.62	Drug metabolism [11]: <= 4 nmol; Drug metabolism [12]: Metabolite_Detected; Activity (Homo sapiens [13]): inactive; Drug recovery [14]: Tde; Drug metabolism [15]: Metabolite_Detected; remaining at 5 min [16]: 88%; viability at 3 µM (HepG2 [4]): 30%; viability at 1 µM (HepG2 [5]): 10%; Drug recovery [17]: 80%; inhibition (Homo sapiens [18]): Tde; remaining at 0 min [19]: 95%; Activity [20]: Active; Km at 5 min (epoxide hydrolase): 3.34 µM; Retention_time (HepG2 [21]): 5.9 min; viability at 1 µM (HepG2 [8]): 39%; Drug metabolism [22]: Tde; viability at 3 µM (HepG2 [9]): 4.8%; Drug metabolism [23]: 4 nmol
O=C1Nc2ccc(I)cc2/C1=C1/Nc2ccccc2/C1=N\O	57	–
O=C1Nc2cc(Br)ccc2/C1=C1/Nc2ccc(Br)cc2/C1=N\OCC1CO1 (stereo unspecified)	> 100	–

SMILES	IC50 (HepG2 [1]) [µM]	also measured
O=C1Nc2c(Br)cccc2/C1=C1/Nc2ccc(Br)cc2/C1=N\O	4.9	–
O=C1Nc2ccc(Cl)cc2/C1=C1/Nc2ccccc2/C1=N\OCC1CO1 (stereo unspecified)	1.3	–
O=C1Nc2ccccc2/C1=C1/Nc2ccccc2C1=O [INDIRUBIN]	> 100	–
O=C1Nc2c(Br)cccc2/C1=C1/Nc2cc(Br)ccc2/C1=N\O	17	–
O=C1Nc2c(Br)cccc2/C1=C1/Nc2ccc(Br)cc2/C1=N\OCC1CO1 (stereo unspecified)	10	Activity (HepG2 [10]): inactive
O=C1Nc2cc(Br)ccc2/C1=C1/Nc2ccccc2C1=O	> 100	–
COc1cccc2c1NC(=O)/C2=C1\Nc2ccccc2C1=O	> 100	–
O=C1Nc2cc(Br)c(Br)cc2/C1=C1/Nc2ccccc2/C1=N\OCC1CO1 (stereo unspecified)	1.9	viability at 3 µM (HepG2 [4]): 48%; viability at 1 µM (HepG2 [5]): 96%; viability at 1 µM (HepG2 [8]): 78%; viability at 3 µM (HepG2 [9]): 6.5%
O=C1Nc2c(Br)cc(Br)cc2/C1=C1/Nc2ccccc2/C1=N\OCC1CO1 (stereo unspecified)	8.8	Activity (HepG2 [10]): inactive
O=C1Nc2c(Br)cccc2/C1=C1/Nc2ccc(Br)cc2C1=O	> 100	–
O=C1Nc2cc(Br)c(Br)cc2/C1=C1/Nc2ccccc2/C1=N\O	4.4	–
O=C1Nc2ccccc2/C1=C1/Nc2ccccc2/C1=N\OCCC1CO1 (stereo unspecified)	7.8	–
O=C1Nc2ccc(F)cc2/C1=C1/Nc2ccccc2C1=O	> 100	–
O=C1Nc2ccc(Br)cc2/C1=C1/Nc2ccc(Br)cc2C1=O	> 100	–
COc1ccc2c(c1)/C(=C1/Nc3ccccc3/C1=N\O)C(=O)N2	6.2	–
O=C1Nc2ccccc2/C1=C1/Nc2ccc(Br)cc2/C1=N\O	11	–
COc1cccc2c1NC(=O)/C2=C1\Nc2ccccc2\C1=N/O	5.9	–
O=C1Nc2ccc(I)cc2/C1=C1/Nc2ccccc2C1=O	> 100	–
O=C1Nc2ccc(Br)cc2/C1=C1/Nc2ccccc2/C1=N\OCC(O)CO (stereo unspecified)	9.8	inhibition (Homo sapiens [24]): inactive; Activity [25]: Not Active; Retention_time (HepG2 [21]): 3.5 min
O=C1Nc2ccc(Br)cc2/C1=C1/Nc2ccccc2C1=O	> 100	–
